molecular target: KRasG12C (M1-K169, biotinylated on the N-terminus) (Homo sapiens (Human), UniProt P01116, G12C); assay: Covalent competition assay (scintillation proximity assay, competition with radiolabeled covalent probe Compound B); type: binding; conditions: in vitro KRASG12C activity; 10 nM KRasG12C:GDP, 25 nM radio-ligand and 475 nM unlabelled ligand, incubated 2 hours; read-out: Covalent Competition Assay IC50
Description: The cells were lysed by 4 passages through an Avestin Emulsiflex at about 20000 psi and insoluble debris removed by centrifugation and filtered through a 0.45 μm Durapore membrane (Millipore). […] The protein in the flow through was subjected to a final polishing step on a HiLoad 16/60 Superdex 200 prep grade size-exclusion column pre-equilibrated with SEC-buffer (20 mM HEPES pH 7.4, 150 mM NaCl, 5 mM MgCl2, 1 μM GDP).
A scintillation proximity assay (SPA) was used to determine the potency of the compounds. This assay measures the ability of the test compound to compete with the radiolabeled covalent probe for binding to and covalently modify KRASG12C.
A serial dilution of the compounds to be tested is mixed with a fixed concentration of the radiolabeled covalent probe before incubation with KRASG12C:GDP as described below.
The reaction was started by addition of KRasG12C (M1-K169, biotinylated on the N-terminus) to the compounds and incubated for 2 hours with continuous agitation allowing for full modification of KRasG12C with probe or test compounds. […] The assay buffer contained 20 mM Tris-HCl pH 7.5 (Invitrogen), 150 mM NaCl (Sigma Aldrich), 0.1 mM MgCl2 (Sigma Aldrich), and 0.01% Tween-20 (Sigma Aldrich).
Evaluation was carried out using assay data analysis software (such as the standard Novartis in-house Helios software application, Novartis Institutes for BioMedical Research, unpublished) using the methods described in Formenko et al., Robust Regression for high-throughput screening.
Evaluation can also be carried out using commercially available software which is designed to derive IC50 values using 4-parameter fits (e.g. GraphPad Prism, XL fit).

SMILES | IC50
C=CC(=O)N1CC2(CC(n3nc(C4=CCC(F)(F)CC4)c(-c4c(Cl)c(C)cc5[nH]ncc45)c3C)C2)C1 (single isomer, unassigned) [Example 3b] | 1200 nM
C=CC(=O)N1CC2(CC(n3nc(-c4ccc5nn(CCOC)cc5c4)c(-c4c(Cl)c(C)cc5[nH]nc(N)c45)c3C)C2)C1 (single isomer, unassigned) [Example 69b, 1-(6-(4-(3-amino-5-chloro-6-methyl-1H-indazol-4-yl)-3-(2-(2-methoxyethyl)-2H-indazol-5-yl)-5-methyl-1H-pyrazol-1-yl)-2-azaspiro[3.3]heptan-2-yl)prop-2-en-1-one] | 840 nM
C=CC(=O)N1CC2(CC(n3nc(-c4cc(C)nn4CCN(C)C)c(-c4c(Cl)c(C)cc5[nH]ncc45)c3C)C2)C1 (single isomer, unassigned) [Example 92b] | 43000 nM
C=CC(=O)N1CC2(CC(n3nc(-c4ccc(NCCOC)cc4F)c(-c4c(Cl)c(C)cc5[nH]ncc45)c3C)C2)C1 (single isomer, unassigned) [Example 61b, 1-(6-(4-(5-chloro-6-methyl-1H-indazol-4-yl)-3-(2-fluoro-4-((2-methoxyethyl)amino)phenyl)-5-methyl-1H-pyrazol-1-yl)-2-azaspiro[3.3]heptan-2-yl)prop-2-en-1-one] | > 5000 nM
C=CC(=O)N1CC2(CC(n3nc(-c4ccc5c(c4)N(C)CC(=O)O5)c(-c4c(Cl)c(C)cc5[nH]ncc45)c3C)C2)C1 (single isomer, unassigned) [Example 32b] | > 50000 nM
C=CC(=O)N1CC2(CC(n3nc(-c4ccc(N5CCS(=O)(=O)CC5)cc4)c(-c4c(Cl)c(C)cc5[nH]ncc45)c3C)C2)C1 (single isomer, unassigned) [Example 50a, 1-(6-(4-(5-chloro-6-methyl-1H-indazol-4-yl)-3-(4-(1,1-dioxidothiomorpholino)phenyl)-5-methyl-1H-pyrazol-1-yl)-2-azaspiro[3.3]heptan-2-yl)prop-2-en-1-one] | 35 nM
C=CC(=O)N1CC2(CC(n3nc(-c4ccc(CN5CCCC5=O)cc4)c(-c4c(Cl)c(C)cc5[nH]ncc45)c3C)C2)C1 [Example 48, 1-(4-(1-(2-acryloyl-2-azaspiro[3.3]heptan-6-yl)-4-(5-chloro-6-methyl-1H-indazol-4-yl)-5-methyl-1H-pyrazol-3-yl)benzyl)pyrrolidin-2-one] | 49 nM
C=CC(=O)N1CC2(CC(n3nc(-c4ccc5cn[nH]c5c4)c(-c4c(Cl)c(C)cc5[nH]ncc45)c3C)C2)C1 [Example 14] | 310 nM
C=CC(=O)N1CC2(CC(n3nc(-c4ccc5ncnn5c4)c(-c4c(Cl)c(C)cc5[nH]ncc45)c3C)C2)C1 (single isomer, unassigned) [Example 23a] | 564 nM
C=CC(=O)N1CC2(CC(n3nc(-c4ccc5nn(CCN6CC[C@H](F)C6)cc5c4)c(-c4c(Cl)c(C)cc5[nH]ncc45)c3C)C2)C1 (single isomer, unassigned) [Example 80b] | 8 nM
C=CC(=O)N1CC2(CC(n3nc(-c4ccccn4)c(-c4c(Cl)c(C)cc5[nH]ncc45)c3C)C2)C1 (single isomer, unassigned) [Example 46b, 1-(6-(4-(5-chloro-6-methyl-1H-indazol-4-yl)-5-methyl-3-(pyridin-2-yl)-1H-pyrazol-1-yl)-2-azaspiro[3.3]heptan-2-yl)prop-2-en-1-one] | > 50000 nM
C=CC(=O)N1CC2(CC(n3nc(-c4cnc(N)c(F)c4)c(-c4c(Cl)c(C)cc5[nH]ncc45)c3C)C2)C1 (single isomer, unassigned) [Example 20b] | 12500 nM
C=CC(=O)N1CC2(CC(n3nc(-c4ccc(=O)n(C)c4)c(-c4c(Cl)c(C)cc5[nH]ncc45)c3C)C2)C1 (single isomer, unassigned) [Example 6a] | 1200 nM
C=CC(=O)N1CC2(CC(n3nc(-c4ccc5c(c4)CN(C)C5)c(-c4c(Cl)c(C)cc5[nH]ncc45)c3C)C2)C1 (single isomer, unassigned) [Example 75b] | > 50000 nM
C=CC(=O)N1CC2(CC(n3nc(-c4ccc5c(cnn5CCO)c4)c(-c4c(Cl)c(C)cc5[nH]ncc45)c3C)C2)C1 (single isomer, unassigned) [Example 83b, 1-(6-(4-(5-chloro-6-methyl-1H-indazol-4-yl)-3-(1-(2-hydroxyethyl)-1H-indazol-5-yl)-5-methyl-1H-pyrazol-1-yl)-2-azaspiro[3.3]heptan-2-yl)prop-2-en-1-one] | 4000 nM
C=CC(=O)N1CC2(CC(n3nc(-c4ccc(O)cc4)c(-c4c(Cl)c(C)cc5[nH]ncc45)c3C)C2)C1 (single isomer, unassigned) [Example 57b] | 3200 nM
C=CC(=O)N1CC2(CC(n3nc(-c4ccc5nn(CCOCCOC)cc5c4)c(-c4c(Cl)c(C)cc5[nH]ncc45)c3C)C2)C1 (single isomer, unassigned) [Example 43a, 1-{6-[(4M)-4-(5-Chloro-6-methyl-1H-indazol-4-yl)-3-{2-[2-(2-methoxyethoxy)ethyl]-2H-indazol-5-yl}-5-methyl-1H-pyrazol-1-yl]-2-azaspiro[3.3]heptan-2-yl}prop-2-en-1-one] | 10 nM
C=CC(=O)N1CC2(CC(n3nc(-c4ccc5nn(CCN(C)C)cc5c4)c(-c4c(Cl)c(C)cc5[nH]ncc45)c3C)C2)C1 (single isomer, unassigned) [Example 16a] | 11 nM
C=CC(=O)N1CC2(CC(n3nc(-c4ccccc4)c(-c4c(Cl)c(C)cc5[nH]ncc45)c3C)C2)C1 (single isomer, unassigned) [Example 26b] | 45600 nM
C=CC(=O)N1CC2(CC(n3nc(-c4ccc5c(cnn5C)c4)c(-c4c(Cl)c(C)cc5[nH]ncc45)c3C)C2)C1 (single isomer, unassigned) [Example 1a] | 17 nM
C=CC(=O)N1CC2(CC(n3nc(-c4cncnc4)c(-c4c(Cl)c(Cl)cc5[nH]ncc45)c3C(F)F)C2)C1 (single isomer, unassigned) [Example 86a] | 1300 nM
C=CC(=O)N1CC2(CC(n3nc(-c4ccc(C(=O)NCCOC)nc4)c(-c4c(Cl)c(C)cc5[nH]ncc45)c3C)C2)C1 (single isomer, unassigned) [Example 64a] | 55 nM
C=CC(=O)N1CC2(CC(n3nc(-c4ccc(-n5nccc5N)nc4)c(-c4c(Cl)c(C)cc5[nH]ncc45)c3C)C2)C1 (single isomer, unassigned) [Example 7a] | 162 nM
C=CC(=O)N1CC2(CC(n3nc(-c4ccc5nc(NC)ncc5c4)c(-c4c(Cl)c(C)cc5[nH]ncc45)c3C)C2)C1 (single isomer, unassigned) [Example 40a] | 99 nM
C=CC(=O)N1CC2(CC(n3nc(-c4ccc5c(c4)C(=O)OC5)c(-c4c(Cl)c(C)cc5[nH]ncc45)c3C)C2)C1 (single isomer, unassigned) [Example 54b] | > 50000 nM
C=CC(=O)N1CC2(CC(n3nc(-c4ccc5cnccc5c4)c(-c4c(Cl)c(C)cc5[nH]ncc45)c3C)C2)C1 (single isomer, unassigned) [Example 25b] | 7800 nM
C=CC(=O)N1CC2(CC(n3nc(-c4ccc5nn(CCN6CC(OC)C6)cc5c4)c(-c4c(Cl)c(C)cc5[nH]ncc45)c3C)C2)C1 (single isomer, unassigned) [Example 82b] | 712 nM
C=CC(=O)N1CC2(CC(n3nc(-c4ccc(O)cc4F)c(-c4c(Cl)c(C)cc5[nH]ncc45)c3C)C2)C1 (single isomer, unassigned) [Example 58b] | > 5000 nM
